This is an account of results in patent publication US6335350B1, “Acetamide and substituted acetamide-containing thiourea inhibitors of herpes viruses” (American Home Products Corporation, priority 1998, dated 2002).

The subject of one experiment is VZV strain Ellen. Nature of the experiment: VZV Antiviral (ELISA) Assay. The format is cell-based, varicella-zoster virus. The settings on record: human foreskin fibroblast cells; for IC50 / inhibition at 10 µg/mL: Human alphaherpesvirus 3, Fibroblast; for IC50: read-out: IC50 Ug/ml VZV; for inhibition at 10 µg/mL: read-out: % inhibition 10 ug/ml VZV, 10 ug/ml. The essentials:
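Cell-based VZV (Ellen) spread assay in HFF, 3-day compound exposure in 2% FBS medium. Viral antigen quantified by fluorescent β-galactosidase ELISA; IC50 from inhibition of signal.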
(In general: In an ELISA, binding on a coated surface is turned into a signal by an enzyme label.)

Another experiment has as its system HSV-1. Nature of the experiment: HSV Antiviral (ELISA) Assay. The format is cell-based, herpes simplex virus type 1. The settings on record: Vero cells, HSV-1; for IC50: Human alphaherpesvirus 1, Vero, read-out: IC50 Ug/ml HSV. The essentials: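 Replication measured as glycoprotein D signal in fixed cells: anti-gD antibody plus β-galactosidase-linked secondary, fluorogenic substrate read at 365/450 nm. Vero cells (2% FBS DMEM) received compound 30 min pre-infection, HSV-1 MOI 0.006, ~24 h incubation; IC50 relative to no-compound fluorescence.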

Another experiment deals with HCMV wild-type. The experiment can be described thus: HCMV yield assay. The format is cell-based, human cytomegalovirus. The settings on record: human foreskin fibroblasts; for IC50: Human betaherpesvirus 5, Fibroblast, read-out: IC50 Ug/ml HCMV. The essentials:
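Value is the compound amount cutting virus yield titer by 50% (IC50) or 90% (IC90). Human foreskin fibroblasts infected with wild-type HCMV (MOI typically 0.2) under varying compound; progeny harvested day 3, titered compound-free on fibroblasts, plaques scored at 2 weeks.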

Values after ≈ are worked out from the molar mass of the structure shown. Bounds are passed on as bounds.

As for `CC(=O)Nc1ccc(NC(=S)Nc2ccc(Cl)c(C(F)(F)F)c2)cc1` [Example 112, N-{4-[3-(4-Chloro-3-trifluoromethyl-phenyl)-thioureido]-phenyl}-acetamide], the IC50 was over 10 µg/mL with VZV strain Ellen, 5 µg/mL (≈ 12.9 µM) with HSV-1 and 3 µg/mL (≈ 7.74 µM) in the experiment on HCMV wild-type. For the same compound, in the experiment on VZV strain Ellen, the inhibition at 10 µg/mL stood at 55%.
In the same order, the values of `CC(=O)Nc1ccc(NC(=S)Nc2ccc(OC(=O)c3ccccc3)cc2O)cc1` [Example 113, Benzoic acid 4-[3-(4-acetylamino-phenyl)-thioureido]-3-hydroxy-phenylester] are over 10 µg/mL, 50 µg/mL (≈ 119 µM), 45 µg/mL (≈ 107 µM) and 39%.
For `COc1cc(OCC#N)c(NC(=S)Nc2ccc(NC(C)=O)cc2)cc1Cl` [Example 213, N-(4-{3-[5-Chloro-4-methoxy-2-(2-nitrilo-ethoxy)-phenyl]-thioureido}-phenyl)-acetamide], in that order: over 10 µg/mL, 30 µg/mL (≈ 74.1 µM), 15 µg/mL (≈ 37 µM) and 20%.
For `CC(=O)Nc1ccc(NC(=S)Nc2ccc(N3CCOCC3)c(Cl)c2)cc1` [Example 205, N-{4-[3-(3-Chloro-4-morpholin-4-yl-phenyl)-thioureido]-phenyl}-acetamide], in that order: over 10 µg/mL, over 50 µg/mL, 20 µg/mL (≈ 49.4 µM) and 30%.
As for `COc1cc(OC)c(NC(=S)Nc2ccc(NC(C)=O)c(C(=O)O)c2)cc1Cl` [Example 337, 2-Acetylamino-5-[3-(5-chloro-2,4-dimethoxy-phenyl)-thioureido]-benzoic acid], the values for the IC50 with VZV strain Ellen, with HSV-1 and with HCMV wild-type were over 10 µg/mL, over 50 µg/mL and over 50 µg/mL, respectively. Moreover, the inhibition at 10 µg/mL with VZV strain Ellen was determined as 31%.
With `CC(=O)Nc1ccc(NC(=S)Nc2ccc(NC(=O)CSCCN(C)C)c(Cl)c2)cc1` [Example 372, N-{4-[3-(4-Acetylamino-phenyl)-thioureido]-2-chloro-phenyl}-2-(2-dimethylamino-ethylsulfanyl)-acetamide], the IC50 with VZV strain Ellen, with HSV-1 and in the experiment on HCMV wild-type was over 10 µg/mL throughout. Moreover, the inhibition at 10 µg/mL with VZV strain Ellen was 53%.
As for “N-{4-[3-(4-Acetylamino-phenyl)-thioureido]-2-chloro-phenyl}-2-dipropylamino-acetamide [Example 410]”, the “% inhibition 10 ug/ml VZV” value in the experiment with VZV strain Ellen (10 ug/ml) is 26%. Moreover, the “IC50 Ug/ml VZV” value with VZV strain Ellen is given as over 10 Ug/ml. Also, in the experiment on HSV-1, the “IC50 Ug/ml HSV” value is over 10 Ug/ml. Besides, the “IC50 Ug/ml HCMV” value in the experiment with HCMV wild-type is reported as over 10 Ug/ml.
Consider `COc1cc(OC)c(NC(=S)Nc2ccc(NC(C)=O)c(C(F)(F)F)c2)cc1Cl` [Example 305, N-{4-[3-(5-Chloro-2,4-dimethoxy-phenyl)-thioureido]-2-trifluoromethyl-phenyl}-acetamide], for which the IC50 with VZV strain Ellen, in the experiment with HSV-1 and in the experiment with HCMV wild-type was over 10 µg/mL each time. The inhibition at 10 µg/mL in the experiment on VZV strain Ellen amounted to 32%.
For `CC(=O)Nc1ccc(NC(=S)Nc2ccc(O)cc2O)cc1` [Example 130, N-{4-[3-(2,4-Dihydroxy-phenyl)-thioureido]-phenyl}-acetamide], the figures for the IC50 with VZV strain Ellen, in the experiment with HSV-1 and in the experiment with HCMV wild-type were over 10 µg/mL, over 50 µg/mL and 30 µg/mL (≈ 94.5 µM), respectively. For the same compound, in the experiment with VZV strain Ellen, the inhibition at 10 µg/mL came to 30%.
In the same order, the values of `CC(=O)Nc1ccc(NC(=S)Nc2ccc(F)c(Cl)c2)cc1` [Example 902, N-{4-[3-(3-Chloro-4-fluoro-phenyl)-thioureido]-phenyl}-acetamide] are over 10 µg/mL, 4 µg/mL (≈ 11.8 µM), 12 µg/mL (≈ 35.5 µM) and 1%.
